# Data taken from patent publication US20080318891A1, “Antisense oligonucleotides against thymidylate synthase” (priority 1998, published 2008).
# Key:
# Assay type in all cases: cell-based, human
# TS mRNA = TS mRNA levels in mesothelioma cells by RT-PCR, Example 8; settings: mesothelioma 211H, 2052 and H28 cells, 10, 25 and 50 ng ODN, 24 hours, relative to control SEQ ID NO:7
# Experimental: Mesothelioma cells were treated with TS antisense ODN SEQ ID NO:1 or control ODN SEQ ID NO:7 (10, 25 and 50 ng) mixed with LFA as described in Example 7. After 24 hours, RNA was isolated using Trizol (Invitrogen). RNA (2 ug) was reverse-transcribed using SuperScript II. Two to 5% of the resulting cDNA was amplified by PCR using primers specific for GAPDH or TS. PCR products were separated on a 1.75% agarose gel stained with ethidium bromide. Image Master VDS gel documentation system and Image Quant software were used to quantitate staining intensity.
# A representative example of RT-PCR products from 3 replicates of mesothelioma 211H cells treated with TS antisense ODN SEQ ID NO: 1 or control ODN SEQ ID NO:7 is shown in FIG. 20. FIG. 21A-C illustrates the quantitation of RT-PCR products from mesothelioma 211H, 2052, and H28 cells treated with TS antisense ODN SEQ ID NO:1 compared to control ODN SEQ ID NO:7 relative to GAPDH PCR products. The mean plus standard deviation (n=3) is shown.
# OV-90 cells = test: Tumour cell proliferation, Example 3; settings: FIG. 14; ODN 10, 25, 50 or 100 nM, four days
# TS protein = test: TS binding assay ([6-3H]5-FdUMP binding) in HeLa cell lysates; settings: HeLa cells, different times following transfection
# Experimental: 5-FdUMP binding was measured in cells transfected with ODN 83 (hatched bars) or ODN 32 (open bars) at different times following transfection. (A) Results are plotted as a percent of 5-FdUMP binding in cells transfected with control ODN 32±SE (n=5). The values for ODN 32 (n=5) were normalized to 100% and are shown without error bars. […] Error bars indicate errors calculated according to a Student t-test, and indicate error due to differences in experimental conditions in 5 measurements taken on different days, and differences due to transfection with different ODNs. The asterisks indicate significant differences (p<0.02) determined by using a paired Student t-test.
# TS binding assay: Cellular content of TS was assayed by binding of [6-^3H]5-FdUMP. […] The assay was performed using cells that were treated with antisense ODN 83 or the scrambled control ODN 32. Briefly, cells were harvested by scraping into PBS and resuspending the subsequent pellet in 100 mM KH2PO4 (pH 7.4). […] The total protein concentration was determined using Coomassie staining (BioRad reagent) (MI) in order to express results as pmol 5-FdUMP bound per mg total protein. 5-FdUMP binding was assessed in paired lysates from cells transfected with ODN 83 or ODN 32, in separate incubation reactions carried out on different days; however, pairs were always assessed together under the same reaction conditions. […]
# HT-29 cells = test: HT-29 proliferation, ODN combined with TS-targeting chemotherapeutics; settings: 50 nM ODN plus raltitrexed (RTX) or 5-FudR, 4 days, compared to control SEQ ID NO:7 and chemotherapeutic
# Experimental: HT-29 cells were plated in T25 flasks, treated with SEQ ID NO: 1 or SEQ ID NO:7 (50 nM) and various concentrations of raltitrexed (RTX) or 5-fluorouracil deoxyribonucleotide (5-FudR). Cell proliferation was measured by counting cells after 4 days.
substance,measurement,setting,value
"ODN 83: phosphorothioated 20-mer 5′-GCCAGTGGCAACATCCTTAA-3′, 2′-methoxyethoxy on 6 end nucleotides, complementary to TS mRNA 3′ untranslated region (all phosphorothioate, sugars by position and methylation of C not given here; 2'-methoxyethoxy on six end nucleotides)",Levels of TS mRNA relative to GAPDH,TS mRNA,specifically reduced
same,Cell proliferation relative to control ODN,OV-90 cells,Inhibition of proliferation
same,TS protein levels (inferred by 5-FdUMP binding),TS protein,diminished
same,Inhibition of HT-29 proliferation by combination with chemotherapeutic,HT-29 cells,increased inhibition
